This is an account of results in patent US10822338B2, “Substituted aminoquinazoline compounds as A2A antagonist” (Merck Sharp & Dohme Corp., priority 2015, dated 2020).

For the test, the target named is human A2A receptor (Homo sapiens (Human), UniProt P29274). In words: A2A competition binding assay using Scintillation Proximity technology. As to conditions: 0.5 nM tritiated radioligand, Cheng-Prusoff. For orientation: SPA uses beads or plates that emit light when radiolabelled molecules are held near them.
Where [1] appears, read: values marked ^: 1 μg of membrane/well (HEK293 cells expressing the human A2a receptor).
Setting [2] is: 0.25 μg of membranes from HEK293 cells expressing the human A2a receptor per well.

human A2A receptor, sequence (P29274 whole entry): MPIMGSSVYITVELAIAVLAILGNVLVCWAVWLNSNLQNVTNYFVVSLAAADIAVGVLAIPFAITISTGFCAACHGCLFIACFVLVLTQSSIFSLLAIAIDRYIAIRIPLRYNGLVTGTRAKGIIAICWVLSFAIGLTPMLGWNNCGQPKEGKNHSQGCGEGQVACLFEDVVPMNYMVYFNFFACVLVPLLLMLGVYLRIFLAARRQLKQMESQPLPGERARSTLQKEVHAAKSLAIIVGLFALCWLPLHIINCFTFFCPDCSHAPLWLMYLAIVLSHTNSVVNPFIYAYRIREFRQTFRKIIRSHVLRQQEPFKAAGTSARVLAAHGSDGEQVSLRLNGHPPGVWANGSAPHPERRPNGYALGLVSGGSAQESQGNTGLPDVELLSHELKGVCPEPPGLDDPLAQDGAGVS

As usually defined, the Ki is a dissociation constant, usually derived from enzyme kinetics or from competition with a known ligand. The low end stands for tighter binding, the high end for weaker binding. With `CCN1CCC[C@@H](c2nc3c4cccc(OC)c4nc(N)n3n2)C1` [Example 5, (R)-2-(1-ethylpiperidin-3-yl)-7-methoxy-[1,2,4]triazolo[1,5-c]quinazolin-5-amine], under setting [1], the affinity corresponds to a Ki of 34 nM.

The molecule `Nc1nc2c(Cl)cccc2c2nc(C3CCCN(CCC(F)(F)F)C3)nn12` (racemic) [Example 27, (±)-7-chloro-2-(1-(3,3,3-trifluoropropyl)piperidin-3-yl)-[1,2,4]triazolo[1,5-c]quinazolin-5-amine] registered a Ki under setting [1] of 9.7 nM.

As to `COc1cccc2c1nc(N)n1nc([C@H]3CCCN(CCC(F)(F)F)C3)nc21` [Example 12, (S)-7-methoxy-2-(1-(3,3,3-trifluoropropyl)piperidin-3-yl)-[1,2,4]triazolo[1,5-c]quinazolin-5-amine], the affinity under setting [2], expressed as Ki, was 14 nM.

`COc1cccc2c1nc(N)n1nc([C@@H]3CCCN(c4nncs4)C3)nc21` [Example 20, (R)-2-(1-(1,3,4-thiadiazol-2-yl)piperidin-3-yl)-7-methoxy-[1,2,4]triazolo[1,5-c]quinazolin-5-amine] came in with a Ki under setting [1] of 1.9 nM.

`COc1cccc2c1nc(N)n1nc(C3CCCC(CCC(F)(F)F)C3)nc21` (single isomer, unassigned) [Example 29D, 7-methoxy-2-(3-(3,3,3-trifluoropropyl)cyclohexyl)-[1,2,4]triazolo[1,5-c]quinazolin-5-amine] came in with a Ki under setting [2] of 17 nM.
